Test results: US8163756B2 (priority 2004, dated 2012)
Structures can show the parent of a compound that is named as a salt. Where two headings read alike, the source gives them in different places.

Columns and labels:
Type in all cases: biochemical
[1] = target: T1, KDR kinase (Homo sapiens, UniProt P35968, DEL940-989/E990V); test: KDR kinase assay K2 (as K1, 2.1 nM enzyme, 2 h pre-incubation, 1.0 mM ATP); settings: Method K2; read-out: KDR Data (IC50)
Experimental: (§1) IC50 values were calculated from a series of percent inhibition values determined at a range of inhibitor concentrations using software routines as implemented in the GraphPad Prism software package.

[2] = target: T2, Abl kinase (Homo sapiens, UniProt P00519); test: Abl kinase assay A1 (pyruvate kinase/lactate dehydrogenase coupled, spectrophotometric)
T2 sequence (P00519 229-512): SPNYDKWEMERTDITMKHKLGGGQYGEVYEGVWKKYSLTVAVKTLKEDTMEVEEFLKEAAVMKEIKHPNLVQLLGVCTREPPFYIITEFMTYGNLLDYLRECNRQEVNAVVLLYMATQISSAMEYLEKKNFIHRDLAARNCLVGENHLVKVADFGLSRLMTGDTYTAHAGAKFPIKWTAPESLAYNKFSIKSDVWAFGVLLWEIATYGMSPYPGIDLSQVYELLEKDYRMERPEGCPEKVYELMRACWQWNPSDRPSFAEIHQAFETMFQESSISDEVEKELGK
Experimental: as §1

[3] = target: T1, KDR kinase; test: KDR kinase assay K1 (pyruvate kinase/lactate dehydrogenase coupled, spectrophotometric)
Experimental: as §1

[4] = target: B-Raf(V599E) kinase (Homo sapiens, UniProt P15056, V600E); test: B-Raf(V599E) kinase assay B1 (construct 1, MEK1 substrate, coupled spectrophotometric)
Experimental: The test compounds were incubated with the reaction mixtureat 30° C. for 2 h. […] The reaction rate was calculated using the […] time frame. […] IC50 values were calculated from a series of percent inhibition values determined at a range of inhibitor concentrations using software routines as implemented in the GraphPad Prism software package.

[5] = target: phosphorylated p-38-alpha kinase (Homo sapiens, UniProt Q16539); test: P-38 alpha kinase assay P1 (coupled spectrophotometric, 2 h pre-incubation)
[6] = Method A1, read-out: Abl Data (IC50)
[7] = Method K1, read-out: KDR Data (IC50)
[8] = method P1 (2 h pre-incubation), read-out: P-38 Data

Chain of phosphorylated p-38-alpha kinase (Q16539 1-360 isoform Q16539-2): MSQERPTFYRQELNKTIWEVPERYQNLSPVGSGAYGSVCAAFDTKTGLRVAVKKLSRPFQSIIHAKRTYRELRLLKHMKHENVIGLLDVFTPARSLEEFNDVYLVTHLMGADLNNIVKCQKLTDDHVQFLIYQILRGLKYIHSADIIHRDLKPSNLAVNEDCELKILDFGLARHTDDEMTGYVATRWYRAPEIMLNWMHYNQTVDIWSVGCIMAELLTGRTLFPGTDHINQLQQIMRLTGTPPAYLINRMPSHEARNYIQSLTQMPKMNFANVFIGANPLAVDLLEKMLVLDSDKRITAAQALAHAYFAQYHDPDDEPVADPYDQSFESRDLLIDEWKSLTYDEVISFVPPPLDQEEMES
T1 sequence (P35968 with tags, fused parts or gaps DEL940-989/E990V): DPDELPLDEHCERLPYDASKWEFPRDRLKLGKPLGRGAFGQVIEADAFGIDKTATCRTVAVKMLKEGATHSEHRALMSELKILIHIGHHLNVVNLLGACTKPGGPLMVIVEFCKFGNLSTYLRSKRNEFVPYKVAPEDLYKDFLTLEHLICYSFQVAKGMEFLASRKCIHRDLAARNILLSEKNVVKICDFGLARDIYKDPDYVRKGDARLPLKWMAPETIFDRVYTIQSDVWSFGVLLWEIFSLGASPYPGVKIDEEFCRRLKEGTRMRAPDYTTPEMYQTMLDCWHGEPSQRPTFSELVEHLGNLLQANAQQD
Chain of B-Raf(V599E) kinase (P15056 with tags, fused parts or gaps V600E): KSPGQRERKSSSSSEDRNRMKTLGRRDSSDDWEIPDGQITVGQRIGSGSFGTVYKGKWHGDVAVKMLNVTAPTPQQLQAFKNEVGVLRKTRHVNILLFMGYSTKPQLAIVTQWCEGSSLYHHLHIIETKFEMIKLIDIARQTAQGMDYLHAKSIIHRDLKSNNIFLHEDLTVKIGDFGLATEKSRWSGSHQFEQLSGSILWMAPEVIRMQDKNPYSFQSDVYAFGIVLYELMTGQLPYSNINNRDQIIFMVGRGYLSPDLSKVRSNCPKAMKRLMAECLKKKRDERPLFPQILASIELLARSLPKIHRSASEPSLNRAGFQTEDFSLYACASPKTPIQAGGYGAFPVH

Structure (SMILES) | IC50 [1] | IC50 [2, 6] | IC50 [3, 7] | IC50 [4] | IC50 [5, 8] | IC50 [2] | IC50 [3] | IC50 [5]
COc1cccc(-n2nc(C(C)(C)C)cc2NC(=O)Nc2ccc(Cl)c(Cl)c2)c1 [Example 337, 1-(3-t-butyl-1-(3-methoxyphenyl)-1H-pyrazol-5-yl)-3-(3,4-dichlorophenyl)urea] | 2 µM |  |  |  |  |  |  | 
CC(C)(C)c1cc(NC(=O)Nc2cc(F)cc(F)c2F)n(-c2cccc(C#N)c2)n1 [Example 209, 1-(3-t-butyl-1-(3-cyanophenyl)-1H-pyrazol-5-yl)-3-(2,3,5-trifluorophenyl)urea] | 0.26 µM |  |  |  |  |  |  | 
CC(C)(C)c1cc(NC(=O)Nc2ccc(Cl)cc2)n(-c2cccc(CNC(=O)N3CCOCC3)c2)n1 [Example 343, 1-(3-t-butyl-1-{3-[(morpholine-4-carboxamido)methyl]phenyl}-1H-pyrazol-5-yl)-3-(4-chlorophenyl)urea] | 18 µM |  |  |  |  |  |  | 
CC(C)(C)c1cc(NC(=O)Nc2ccc(Cl)cc2)n(-c2ccc3ncccc3c2)n1 [Example 339, 1-[3-t-butyl-1-(quinolin-6-yl)-1H-pyrazol-5-yl]-3-(4-chlorophenyl)urea] | 1.2 µM |  |  |  |  |  |  | 
CC(C)(C)c1cc(NC(=O)Nc2cccc3ccccc23)n(-c2ccc3c(c2)C(=O)NCC3)n1 [Example 348, 1-[3-t-butyl-1-(1-oxo-1,2,3,4-tetrahydroisoquinolin-7-yl)-1 H-pyrazol-5-yl]-3-(naphthalen-1-yl)urea] | 16.5 µM |  |  |  |  |  |  | 
CCOC(=O)C1CCCN(C(=O)Cc2ccc(-n3nc(C(C)(C)C)cc3NC(=O)Nc3cccc(Cl)c3Cl)cc2)C1 (centres unmarked) [Example 346, ethyl 1-[2-(4-{3-t-butyl-5-[3-(2,3-dichlorophenyl)ureido]-1H-pyrazol-1-yl}phenyl)acetyl]piperidine-3-carboxylate] | 1.7 µM |  |  |  |  |  |  | 
CC(C)(C)c1cc(NC(=O)Nc2cccc(Cl)c2Cl)n(-c2ccc3c(c2)CCNC(=O)C3)n1 [Example 165, 1-(3-t-butyl-1-(2-oxo-2,3,4,5-tetrahydro-1H-benzo[d]azepin-7-yl)-1H-pyrazol-5-yl)-3-(2,3-dichlorophenyl)urea] |  | 0.2 µM | 0.21 µM | 0.0024 µM | 0.007 µM |  |  | 
CC(C)(C)c1cc(NC(=O)Nc2cccc(Cl)c2Cl)n(-c2ccc3c(c2)CN[C@H](C(=O)O)C3)n1 [Example 177, (3S)-7-(3-t-butyl-5-(3-(2,3-dichlorophenyl)ureido)-1H-pyrazol-1-yl)-1,2,3,4-tetra-hydroisoquinoline-3-carboxylic acid] |  | 1.8 µM | 0.23 µM | 0.0063 µM | 0.043 µM |  |  | 
CC(C)(C)c1cc(NC(=O)Nc2cccc(Cl)c2Cl)n(-c2ccc3c(c2)CCN(S(C)(=O)=O)C3)n1 [Example 154, 1-(3-t-butyl-1-(2-(methylsulfonyl)-1,2,3,4-tetrahydroisoquinolin-6-yl)-1H-pyrazol-5-yl)-3-(2,3-dichlorophenyl)urea] |  | 0.27 µM | 0.092 µM | 0.0029 µM | 0.012 µM |  |  | 
CC(C)(C)c1cc(NC(=O)Nc2cccc(Cl)c2Cl)n(-c2cccc(CCO)c2)n1 [Example 24, 1-{3-t-butyl-1-[3-(2-hydroxyethyl)phenyl]-1H-pyrazol-5-yl}-3-(2,3-dichlorophenyl)urea] |  | 0.83 µM | 0.38 µM | 0.0023 µM | 0.011 µM |  |  | 
CC(C)(C)c1cc(NC(=O)Nc2cccc(Cl)c2Cl)n(-c2ccc3c(c2)CCCN3)n1 [Example 135, 1-[3-t-butyl-1-(1,2,3,4-tetrahydroquinolin-6-yl)-1H-pyrazol-5-yl]-3-(2,3-dichlorophenyl)urea hydrochloride] |  |  |  | 0.0045 µM |  | 0.84 µM | 0.27 µM | 0.044 µM
CC(C)(C)c1cc(NC(=O)Nc2cccc(Cl)c2Cl)n(-c2ccc(C(C)(C)O)cc2)n1 [Example 20, 1-{3-t-butyl-1-[4-(2-hydroxypropan-2-yl)phenyl]-1H-pyrazol-5-yl}-3-(2,3-dichlorophenyl)urea] |  | 1.6 µM | 0.13 µM | 0.0085 µM | 0.06 µM |  |  | 
CC(C)(C)c1cc(NC(=O)Nc2cccc(Cl)c2Cl)n(-c2cccc(CCC(=O)O)c2)n1 [Example 46, 3-(3-{3-t-Butyl-5-[3-(2,3-dichloro-phenyl)ureido]-1H-pyrazol-1-yl}-phenyl)propionic acid] |  | 2.5 µM | 0.17 µM | 0.0033 µM | 0.006 µM |  |  | 
CC(C)(C)c1cc(NC(=O)Nc2cccc(Cl)c2Cl)n(-c2ccc(CCO)cc2)n1 [Example 45, 1-{3-t-butyl-1-[4-(2-hydroxyethyl)-phenyl]-1H-pyrazol-5-yl}-3-(2,3-dichlorophenyl)urea] |  | 0.78 µM | 0.36 µM | 0.0062 µM | 0.005 µM |  |  | 
CC(C)(C)c1cc(NC(=O)Nc2cccc(Cl)c2Cl)n(-c2ccc3c(c2)CCNCC3)n1 [Example 166, 1-(3-t-butyl-1-(2,3,4,5-tetrahydro-1H-benzo[d]azepin-7-yl)-1 H-pyrazol-5-yl)-3-(2,3-dichlorophenyl)urea] |  | 0.23 µM | 0.21 µM | 0.0057 µM | 0.061 µM |  |  | 
CC(C)(C)c1cc(NC(=O)Nc2cccc(Cl)c2Cl)n(-c2cc(CO)c3ccccc3c2)n1 [Example 60, 1-[5-t-butyl-2-(4-hydroxymethylnaphthalen-2-yl)-2H-pyrazol-3-yl]-3-(2,3-dichloro-phenyl)urea] |  | 0.063 µM | 0.062 µM | 0.0026 µM | 0.018 µM |  |  | 
CC(C)(C)c1cc(NC(=O)Nc2cccc(Cl)c2Cl)n(-c2ccc3c(c2)CCCN3C(=N)N)n1 [Example 136, 1-[3-t-butyl-1-(1-amidino-1,2,3,4-tetrahydroquinolin-6-yl]-1H-pyrazol-5-yl)-3-(2,3-dichlorophenyl)urea] |  | 0.1 µM | 0.029 µM | 0.0049 µM | 0.13 µM |  |  | 
CC(C)(C)c1cc(NC(=O)Nc2cccc(Cl)c2Cl)n(-c2ccc3c(c2)CCNC3=O)n1 [Example 137, 1-(3-t-butyl-1-(1-oxo-1,2,3,4-tetrahydroisoquinolin-6-yl)-1H-pyrazol-5-yl)-3-(2,3-dichloro-phenyl)urea] |  | 0.15 µM | 1 µM | 0.0025 µM | 0.055 µM |  |  | 
CC(C)(C)c1cc(NC(=O)Nc2cccc(Cl)c2Cl)n(-c2ccc3c(c2)CCC(=O)N3)n1 [Example 131, 1-[3-t-butyl-1-(2-oxo-1,2,3,4-tetrahydroquinolin-6-yl)-1H-pyrazol-5-yl]-3-(2,3-dichlorophenyl)urea] |  | 0.28 µM | 0.077 µM | 0.0019 µM | 0.033 µM |  |  | 
CC(C)(C)c1cc(NC(=O)Nc2cccc(Cl)c2Cl)n(-c2cccc(CO)c2)n1 [Example 1, 1-[3-t-butyl-1-(3-hydroxymethyl-phenyl)-1H-pyrazol-5-yl]-3-(2,3-dichlorophenyl)urea] |  | 0.31 µM | 0.13 µM | 0.0046 µM | 0.011 µM |  |  | 
CC(C)(C)c1cc(NC(=O)Nc2cccc(Cl)c2Cl)n(-c2cccc(C(=N)N)c2)n1 [Example 44, 1-[3-t-butyl-1-(3-carbamimidoylphenyl)-1H-pyrazol-5-yl]-3-(2,3-dichlorophenyl)urea] |  | 0.44 µM | 2.4 µM | 0.004 µM | 0.07 µM |  |  | 
CC(C)(C)c1cc(NC(=O)Nc2cccc(Cl)c2Cl)n(-c2ccc3c(c2)CN(S(C)(=O)=O)CC3)n1 [Example 127, 1-{3-t-butyl-1-[2-(methanesulfonyl)-1,2,3,4-tetrahydroisoquinolin-7-yl]-1H-pyrazol-5-yl}-3-(2,3-dichlorophenyl)urea] |  | 0.22 µM | 0.22 µM | 0.0034 µM | 0.013 µM |  |  | 
CC(C)(C)c1cc(NC(=O)Nc2cccc(Cl)c2Cl)n(-c2cc(CNC(=O)NS(C)(=O)=O)c3ccccc3c2)n1 [Example 75, 1-{3-t-butyl-1-[1-(methanesulfonylureidoamidomethyl)naphthalen-3-yl]-1H-pyrazol-5-yl}-3-(2,3-dichlorophenyl-1-yl)urea] |  | 0.063 µM | 0.14 µM | 0.0042 µM | 0.006 µM |  |  | 
CC(C)(C)c1cc(NC(=O)Nc2cccc(Cl)c2Cl)n(-c2ccc3c(c2)C(N)=NCC3)n1 [Example 129, 1-[1-(1-amino-3,4-dihydroisoquinolin-7-yl)-3-t-butyl-1H-pyrazol-5-yl]-3-(2,3-dichlorophenyl)urea] |  | 0.27 µM | 0.5 µM | 0.0042 µM | 0.13 µM |  |  | 
CC(C)(C)c1cc(NC(=O)Nc2cccc(Cl)c2Cl)n(-c2ccc3c(c2)CN[C@H](C(N)=O)C3)n1 [Example 178, 1-(3-t-butyl-1-((3S)-3-carbamoyl-1,2,3,4-tetrahydroisoquinolin-7-yl)-1 H-pyrazol-5-yl)-3-(2,3-dichlorophenyl)urea] |  | 0.23 µM | 0.18 µM | 0.002 µM | 0.046 µM |  |  | 
CC(C)(C)c1cc(NC(=O)Nc2cccc(Cl)c2Cl)n(-c2cccc(C(N)=O)c2)n1 [Example 13, 1-[3-t-butyl-1-(3-carbamoylphenyl)-1H-pyrazol-5-yl]-3-(2,3-dichlorophenyl)urea] |  | 2 µM | 0.36 µM | 0.0052 µM | 0.045 µM |  |  | 
